Measured values taken from patent US6037351A, “Method of inhibiting hepatitis B virus” (priority 1996, dated 2000).

Assays:
hepatitis B virus (HBV) = test: Progeny HBV in medium of infected HepG2 cells (immunoprecipitation, PCR, densitometry); type: cell-based, HBV in human hepatoma HepG2 cells; details: NBDNJ 700 μg/ml (3.2 mM), HepG2 cells infected with protease processed HBV, five days after infection
Source text: FIG. 3A and FIG. 3C: DNA from virions, immunoprecipitated with monoclonal antibody to MHBs, was amplified by polymerase chain reaction (PCR) and resolved by agarose gel electrophoresis.
These bands were imaged by densitometry and the areas under the peaks are shown in FIG. 3C in which the average of the two samples of each NBDNJ concentration was plotted.
Infection of HepG2 cells:
HBV was purified from human serum or from the medium of cultured cells by sedimentation to between 40 and 46% sucrose (w/w) following ultracentrifugation, [Seifer et al., Virol. 179, 300-311 (1990)]. Virions were dialyzed in 0.02 M Potassium Phosphate Buffer, pH 7.4, concentrated, treated with V8 protease (from Staphylococcus aureus, Sigma Chemical Co.) overnight at 37° C. centrifuged for 8 hours through a 20% sucrose/0.01M Tris, pH 7.4, 0.14 M NaCl, 0.005 M EDTA (TNE) cushion. The pellets were re-suspended in growth medium and then used to inoculate HepG2 cells.
Progeny virus in the medium of HepG2 cells infected with serum derived HBV was detected by precipitating medium with monoclonal antibody to the PreS2 epitopes. DNA from immunoprecipated virions was amplified by a polymerase chain reaction (PCR) using primers from nucleotides 2815 and 190 with respect to the viral genome (using the EcoRI site as nucleotide 1). […]

HIV = details: read-out: EC50 for inhibition of HIV replication; cited from earlier work

For `CCCCN1C[C@H](O)[C@@H](O)[C@H](O)[C@H]1CO` [NBDNJ, N-butyl-1,5-dideoxy-1,5-imino-D-glucitol], the “viral DNA in medium of infected cells vs untreated” value (hepatitis B virus (HBV)) is listed as “an order of magnitude less viral DNA” and the EC50 (HIV) is listed as 43 µM.
